Where “and” joins values, the source holds several entries; their conditions need not be identical. Equal values may be shown once.
Tested on: 349418-098-R-PDC spheroids, viability, % test/control
Experiment: Anticancer human tumor 349418-098-R-PDC patient-derived lung adenocarcinoma cell line growth inhibition [IpAb]
Settings: spheroids with HUVEC and MSC; for viability, T/C: stronger effect = lower value
How it was run: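 Multi-cell spheroids of 60% tumour cells, 25% HUVEC and 15% MSC in ultra-low-attachment U-bottom wells, treated with agents combined with ipatasertib or abemaciclib. Half-log ranges top out near clinical Cmax, or 10 microM when Cmax is unknown.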

[1] = curve of first compound, second compound 0.1 µM
[2] = curve of first compound, second compound 0.316 µM
[3] = curve of first compound, second compound 1 µM
[4] = curve of first compound, second compound 3.16 µM
[5] = curve of first compound, second compound 10 µM
[6] = second compound 0.1 µM, first compound 0.0316 µM
[7] = second compound 0.1 µM, first compound 0.1 µM
[8] = second compound 0.1 µM, first compound 0.316 µM
[9] = second compound 0.1 µM, first compound 1 µM
[10] = second compound 0.1 µM, first compound 3.16 µM
[11] = second compound 0.1 µM, first compound 10 µM
[12] = second compound 0.316 µM, first compound 0.0316 µM
[13] = second compound 0.316 µM, first compound 0.1 µM
[14] = second compound 0.316 µM, first compound 0.316 µM
[15] = second compound 0.316 µM, first compound 1 µM
[16] = second compound 0.316 µM, first compound 3.16 µM
[17] = second compound 0.316 µM, first compound 10 µM
[18] = second compound 1 µM, first compound 0.0316 µM
[19] = second compound 1 µM, first compound 0.1 µM
[20] = second compound 1 µM, first compound 0.316 µM
[21] = second compound 1 µM, first compound 1 µM
[22] = second compound 1 µM, first compound 3.16 µM
[23] = second compound 1 µM, first compound 10 µM
[24] = second compound 3.16 µM, first compound 0.0316 µM
[25] = second compound 3.16 µM, first compound 0.1 µM
[26] = second compound 3.16 µM, first compound 0.316 µM
[27] = second compound 3.16 µM, first compound 1 µM
[28] = second compound 3.16 µM, first compound 3.16 µM
[29] = second compound 3.16 µM, first compound 10 µM
[30] = second compound 10 µM, first compound 0.0316 µM
[31] = second compound 10 µM, first compound 0.1 µM
[32] = second compound 10 µM, first compound 0.316 µM
[33] = second compound 10 µM, first compound 1 µM
[34] = second compound 10 µM, first compound 3.16 µM
[35] = second compound 10 µM, first compound 10 µM
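Note: spheroids exposed to compounds for 7 days.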

Row | SMILES | IC50 [1] | IC50 [2] | IC50 [3] | viability, T/C [6] | viability, T/C [7] | viability, T/C [8] | viability, T/C [9] | viability, T/C [10] | viability, T/C [11] | viability, T/C [12] | viability, T/C [13] | viability, T/C [14] | viability, T/C [15] | viability, T/C [16] | viability, T/C [17] | viability, T/C [18] | viability, T/C [19] | viability, T/C [20] | viability, T/C [21] | viability, T/C [22] | other results
1 | C=CCn1c(=O)c2cnc(Nc3ccc(N4CCN(C)CC4)cc3)nc2n1-c1cccc(C(C)(C)O)n1 + CC(C)NCC(C(=O)N1CCN(c2ncnc3c2C(C)CC3O)CC1)c1ccc(Cl)cc1 | 154 nM | 84.5 nM | < 31.6 nM | 96.2% | 73% | 11.5% | 4.54% | 4.88% | 5.17% | 82% | 44.5% | 7.25% | 4.35% | 4.32% | 4.08% | 29.7% | 22.2% | 5.45% | 3.39% | 3.96% | IC50 [4]: < 31.6 nM; IC50 [5]: < 31.6 nM; viability, T/C [23]: 3.54%; viability, T/C [24]: 15.3%; viability, T/C [25]: 12.3%; viability, T/C [26]: 4.49%; viability, T/C [27]: 2.96%; viability, T/C [28]: 3.95%; viability, T/C [29]: 3.35%; viability, T/C [30]: 9.2%; viability, T/C [31]: 7.89%; viability, T/C [32]: 4.37%; viability, T/C [33]: 2.99%; viability, T/C [34]: 3.49%; viability, T/C [35]: 3.4%
2 | Cc1nc(NC(=O)N2CCCC2C(N)=O)sc1-c1ccnc(C(C)(C)C(F)(F)F)c1 (stereo not given) + CC(C)NCC(C(=O)N1CCN(c2ncnc3c2C(C)CC3O)CC1)c1ccc(Cl)cc1 | 117 nM | < 31.6 nM | < 31.6 nM | 75.5% | 52.5% | 31.8% | 16.8% | 14.2% | 12.7% | 40.3% | 33.8% | 24.9% | 12.6% | 13.7% | 9.57% | 21.9% | 16.2% | 13.6% | 11% | 10.2% | IC50 [4]: < 31.6 nM; IC50 [5]: < 31.6 nM; viability, T/C [23]: 8.68%; viability, T/C [24]: 11.4%; viability, T/C [25]: 9.53%; viability, T/C [26]: 9.54%; viability, T/C [27]: 7.39%; viability, T/C [28]: 7.95%; viability, T/C [29]: 7.62%; viability, T/C [30]: 8.29%; viability, T/C [31]: 7.93%; viability, T/C [32]: 7.48%; viability, T/C [33]: 6.51%; viability, T/C [34]: 6.55%; viability, T/C [35]: 5.85%
3 | Cn1cnc2c(F)c(Nc3ccc(Br)cc3Cl)c(C(=O)NOCCO)cc21 |  |  |  |  |  |  |  |  |  |  |  |  |  |  |  |  |  |  |  |  | viability, T/C (compound 0.00949 µM): 54.9% and 51.1%; viability, T/C (compound 0.03 µM): 47.6% and 37.5%; viability, T/C (compound 0.0949 µM): 49.2% and 43%; viability, T/C (compound 0.3 µM): 58.2% and 42.2%; viability, T/C (compound 0.949 µM): 37.5% and 27.2%; viability, T/C (compound 3 µM): 12.6% and 11.1%
4 | CC(=O)c1c(C)c2cnc(Nc3ccc(N4CCNCC4)cn3)nc2n(C2CCCC2)c1=O |  |  |  |  |  |  |  |  |  |  |  |  |  |  |  |  |  |  |  |  | viability, T/C (compound 0.000949 µM): 97.3% and 86.4%; viability, T/C (compound 0.003 µM): 82.9% and 78.7%; viability, T/C (compound 0.00949 µM): 61.7%; viability, T/C (compound 0.03 µM): 30.8% and 42.2%; viability, T/C (compound 0.0949 µM): 24.5% and 21.1%; viability, T/C (compound 0.3 µM): 16.8% and 16.9%; IC50 (curve of compound): 14.4 nM and 18.2 nM
5 | CCCS(=O)(=O)Nc1ccc(F)c(C(=O)c2c[nH]c3ncc(-c4ccc(Cl)cc4)cc23)c1F + CCN1CCN(Cc2ccc(Nc3ncc(F)c(-c4cc(F)c5nc(C)n(C(C)C)c5c4)n3)nc2)CC1 | < 31.6 nM | < 31.6 nM | < 31.6 nM | 18.8% | 17.6% | 17.3% | 17.2% | 14.2% | 8.97% | 14.3% | 13.6% | 12.5% | 10.8% | 10.5% | 9.39% | 14.1% | 11.8% | 11.1% | 9.39% | 9.24% | IC50 (curve of first compound, second compound 0.01 µM): 91.3 nM; IC50 (curve of first compound, second compound 0.0316 µM): < 31.6 nM; viability, T/C (second compound 0.01 µM, first compound 0.0316 µM): 59.7%; viability, T/C (second compound 0.01 µM, first compound 0.1 µM): 50.3%; viability, T/C (second compound 0.01 µM, first compound 0.316 µM): 32.9%; viability, T/C (second compound 0.01 µM, first compound 1 µM): 37.3%; viability, T/C (second compound 0.01 µM, first compound 3.16 µM): 27.6%; viability, T/C (second compound 0.01 µM, first compound 10 µM): 16.7%; viability, T/C (second compound 0.0316 µM, first compound 0.0316 µM): 34.7%; viability, T/C (second compound 0.0316 µM, first compound 0.1 µM): 23.7%; viability, T/C (second compound 0.0316 µM, first compound 0.316 µM): 27.6%; viability, T/C (second compound 0.0316 µM, first compound 1 µM): 28.3%; viability, T/C (second compound 0.0316 µM, first compound 3.16 µM): 20.8%; viability, T/C (second compound 0.0316 µM, first compound 10 µM): 11.4%; viability, T/C [23]: 7.05%
6 | CCCS(=O)(=O)Nc1ccc(F)c(C(=O)c2c[nH]c3ncc(-c4ccc(Cl)cc4)cc23)c1F + CC(C)NCC(C(=O)N1CCN(c2ncnc3c2C(C)CC3O)CC1)c1ccc(Cl)cc1 | 106 nM | < 31.6 nM | < 31.6 nM | 56.4% | 48.1% | 42.4% | 38.4% | 33.5% | 15.7% | 32.9% | 29.4% | 29.8% | 21.7% | 21.4% | 11.2% | 19.1% | 16.6% | 11.9% | 10.1% | 11% | IC50 [4]: < 31.6 nM; IC50 [5]: < 31.6 nM; viability, T/C [23]: 7.7%; viability, T/C [24]: 9.81%; viability, T/C [25]: 7.85%; viability, T/C [26]: 7.36%; viability, T/C [27]: 6.91%; viability, T/C [28]: 7.18%; viability, T/C [29]: 6.15%; viability, T/C [30]: 6.76%; viability, T/C [31]: 6.33%; viability, T/C [32]: 5.46%; viability, T/C [33]: 5.62%; viability, T/C [34]: 5.53%; viability, T/C [35]: 4.47%
7 | CC(C)(C)c1cnc(CSc2cnc(NC(=O)C3CCNCC3)s2)o1 |  |  |  |  |  |  |  |  |  |  |  |  |  |  |  |  |  |  |  |  | viability, T/C (compound 0.00949 µM): 105% and 108%; viability, T/C (compound 0.03 µM): 90.5% and 85.3%; viability, T/C (compound 0.0949 µM): 2.46% and 15.2%; viability, T/C (compound 0.3 µM): 2.23% and 2.41%; viability, T/C (compound 0.949 µM): 3.07% and 3.11%; viability, T/C (compound 3 µM): 2.08% and 2.15%; IC50 (curve of compound): 50.9 nM and 53.6 nM

Source: PubChem BioAssay AID2060340 (Molecular Pharmacology Branch, DTP, NCI, 2025)
